Converted amounts (≈) assume the structure as drawn. “Also recorded” adds a separate entry of the source. Where two headings read alike, the source gives them in different places.
How the values were obtained:
[1] = test system: synthetic DNA dodecamer duplex d(CGCGAATTCGCG)2; assay: DNA binding by differential scanning calorimetry (DSC)
[2] = test system: Mycobacterium tuberculosis
[3] = target: T1, E. coli UPPS (Escherichia coli, UniProt P60472); assay: E. coli UPPS inhibition assay; assay type: biochemical
T1 construct: His-tag (cleaved yes); made in house; host or cells: E. coli BL21 (DE3)
Experimental: (§1) Methods. EcUPPS and SaUPPS were expressed and purified as described previously (Durrant et al., Chem Biol Drug Des 2011, 78(3):323-332). UPPS inhibition assays were carried out as described previously, and UPPS/inhibitor crystals were obtained via soaking as described previously (Guo et al., Proc Natl Acad Sci USA 2007, 104(24):10022-10027). Structure determinations and refinements were carried out as described below in Example 3. […] Full synthesis and characterization details for all compounds investigated crystallographically are provided in Example 1 above. In vivo experiments used female BALB/c mice infected intraperitoneally with S. aureus (USA200), as described in detail in Example 3 below. Bacterial cell growth inhibition assays were carried out as described previously (Zhang et al., ACS Med Chem Lett 2012, 3(5):402-406).
(§2) UPPS Inhibition Assays. E. coli UPPS and S. aureus UPPS inhibition assays were carried out as described previously (Durrant et al., Chem Biol Drug Des 2011, 78(3):323-332). […] The IC50 values were obtained by fitting the inhibition data to a standard rectangular hyperbolic dose-response function in GraphPad PRISM 4.0 software (Graphpad Software, San Diego, Calif.). […] IPP and 0.01% Triton X-100.

[4] = target: T2, S. aureus UPPS (Staphylococcus aureus, UniProt P60477); assay: biochemical
T2 construct: His-tag (pET-32 Xa/LIC vector tag) (N, cleaved yes); made in house; host or cells: E. coli BL21 (DE3)
T2 sequence (P60477 1-256): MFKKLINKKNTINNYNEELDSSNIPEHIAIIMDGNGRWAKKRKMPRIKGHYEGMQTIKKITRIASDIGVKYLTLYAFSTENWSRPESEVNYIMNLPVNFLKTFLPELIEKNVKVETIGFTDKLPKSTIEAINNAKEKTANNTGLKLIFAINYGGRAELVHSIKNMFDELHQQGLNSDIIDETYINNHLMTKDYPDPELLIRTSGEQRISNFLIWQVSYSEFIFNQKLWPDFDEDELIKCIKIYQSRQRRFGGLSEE
Experimental: as §1, §2

[5] = test system: E. coli; assay: E. coli cell growth inhibition; assay type: cell-based; conditions: for MIC90: Escherichia coli
Experimental: (§3) Methods. EcUPPS and SaUPPS were expressed and purified as described previously (Durrant et al., Chem Biol Drug Des 2011, 78(3):323-332). UPPS inhibition assays were carried out as described previously, and UPPS/inhibitor crystals were obtained via soaking as described previously (Guo et al., Proc Natl Acad Sci USA 2007, 104(24):10022-10027). Structure determinations and refinements were carried out as described below in Example 3. For the eleven structures reported, the resolution was on average 1.88 Å (±0.29 Å) and Rfree was on average 24.6% (±3.9%). Full synthesis and characterization details for all compounds investigated crystallographically are provided in Example 1 above. In vivo experiments used female BALB/c mice infected intraperitoneally with S. aureus (USA200), as described in detail in Example 3 below. Bacterial cell growth inhibition assays were carried out as described previously (Zhang et al., ACS Med Chem Lett 2012, 3(5):402-406).
(§4) Cell growth inhibition. The growth of S. aureus (USA300 strain) and determination of MIC values were as described previously (Molohon et al., ACS chemical biology 2011, 6(12):1307-1313). E. coli growth and construction of isobolograms were also carried out basically as described previously (Leon et al., J Med Chem 2006, 49(25):7331-7341).

[6] = test system: S. aureus (USA300 strain); assay: S. aureus cell growth inhibition; assay type: cell-based; conditions: USA300, MRSA strain; for MIC90: Staphylococcus aureus
Experimental: as §3, §4

[7] = target: UPPS; assay: UPPS inhibition, enzyme species not given; assay type: biochemical
Experimental: as §1, §2

[8] = test system: S. aureus USA200 Sanger 252 (MRSA) strain

T1 sequence (P60472 whole entry): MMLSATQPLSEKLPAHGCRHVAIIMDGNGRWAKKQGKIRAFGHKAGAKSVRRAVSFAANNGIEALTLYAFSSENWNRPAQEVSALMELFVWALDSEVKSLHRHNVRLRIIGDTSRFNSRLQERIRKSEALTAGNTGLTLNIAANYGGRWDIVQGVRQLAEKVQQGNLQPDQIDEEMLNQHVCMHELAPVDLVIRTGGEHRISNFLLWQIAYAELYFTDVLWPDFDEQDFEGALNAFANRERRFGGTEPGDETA

| SMILES | IC50 [4] [nM] | IC50 [3] [nM] | MIC90 [5] [µg/mL] | MIC90 [6] [µg/mL] | further results |
| --- | --- | --- | --- | --- | --- |
| O=C(Nc1cccc(C2=NCCCN2)c1)c1ccc(-c2ccc(C(=O)Nc3cccc(C4=NCCCN4)c3)cc2)cc1 [BPH-1503] |  |  |  |  | DNA binding (in words) [1]: binds to DNA; also recorded: strong DNA binding; shift in Tmax of DNA melting (DSC) ([1]; 1 mM DNA duplex, 1 mM compound): ~10 °C; concentration inhibiting Mycobacterium tuberculosis [2]: 1 µM |
| O=P(O)(O)C(O)(Cc1cccc(-c2cccc3c2oc2ccccc23)c1)P(=O)(O)O [Compound 5, reference compound] | 350 |  |  |  | IC50 ([3]; read-out: E. coli UPPS IC50): 280 nM; E. coli MIC90 [5]: >32 µg/mL; S. aureus MIC90 [6]: >32 µg/mL |
| CCCCCCCCCCCCOc1cccc(O)c1C(=O)O [Compound 11, (Dodecyloxy)-6-hydroxybenzoic acid] | 1700 | 2200 | > 32 |  |  |
| CCCCCCCCCCOc1cccc(C(=O)Nc2ccc([N+](=O)[O-])cc2C(=O)O)c1 [Compound 12, 2-(3-(Decyloxy)benzamido)-5-nitrobenzoic acid] | 490 | 3000 | > 32 | > 32 |  |
| CCCCCCCCOc1cccc(COc2ccc(Br)cc2P(=O)(O)O)c1 [Compound 13, (5-bromo-2-((3-(octyloxy)benzyl)oxy)phenyl)phosphonic acid] | 2500 | 920 | > 32 | 32 (≈ 67.9 µM) |  |
| O=C(Nc1cccc(C2=NCCN2)c1)c1ccc(C(=O)Nc2cccc(C3=NCCN3)c2)c([N+](=O)[O-])c1 [Compound 16, N^1, N^4-bis(3-(4,5-dihydro-1H-imidazol-2-yl)phenyl)-2-nitroterephthalamide] | 4900 | 4800 | 8 (≈ 16.1 µM) | > 32 |  |
| O=C(Nc1cccc(C2=NCCN2)c1)c1ccc(-c2ccc(C(=O)Nc3cccc(C4=NCCN4)c3)cc2)cc1 [Compound 17, N^4, N^4′-bis(3-(4,5-dihydro-1H-imidazol-2-yl)phenyl)-[1,1′-biphenyl]-4,4′-dicarboxamide] |  |  | 4 (≈ 7.57 µM) | 0.25 (≈ 0.473 µM) | IC50 ([7]; read-out: UPPS IC50): 100 nM; IC50 ([7]; read-out: UPPS inhibition): ~100 nM; adverse reactions in treated mice ([8]; 10 mg/kg intraperitoneally once daily, 3 doses): no apparent adverse reactions; mice survived ([8]; 10 mg/kg intraperitoneally once daily, 3 doses, pooled results of 2 experiments): 20/20; activity in mouse model of infection (in words) ([8]; 10 mg/kg once daily, 3 doses total): clear therapeutic activity; also recorded: No mice in the group treated once daily with 10 mg/kg of 17 (3 doses total) died during either experiment; concentration inhibiting Mycobacterium tuberculosis [2]: 0.4 to 0.5 µM |
| NCCc1cc(Br)cc(C#Cc2cccc(C#Cc3cc(Br)cc(CCN)c3)c2)c1 [Compound 18, 2,2′-((1,3-phenylenebis(ethyne-2,1-diyl))bis(3-bromo-5,1-phenylene))diethanamine] | 1400 |  | 8 (≈ 15.3 µM) | > 32 | IC50 ([3]; read-out: E. coli UPPS IC50): 6100 nM |

— patent US9951097B2, “Antibacterial compounds targeting isoprenoid biosynthesis” (priority 2012, dated 2018)
